{"source": "patent US20230165242A1", "about": "“RODENTICIDAL BAIT AND METHOD OF CONTROLLING TARGET HARMFUL RODENTS” (priority 2020, published 2023)", "key": {"[1]": {"system": "warfarin-sensitive male OFA-Sprague-Dawley rats", "assay": "Prothrombin level, Quick's time (bromadiolone / cholecalciferol gavage)", "type": "in vivo, rat", "description": "Warfarin-sensitive male OFA-Sprague-Dawley rats (Charles River, L′Arbresles, France) are fed by gavage for 3 consecutive days with a gavage solution containing bromadiolone (LIPHATECH, France) and cholecalciferol (Sigma-Aldrich, France) in a solvent consisting of 95% (v/v) of oil and 5% (v/v) of DMSO. During this period of gavage, the rats are fed with a conventional solid feed and water in unlimited amounts. The concentrations of bromadiolone and cholecalciferol in the gavage solution are 0.1 g/kg (100 ppm) and 7.5 g/kg (7500 ppm) respectively. Each rat receives daily a volume of gavage solution calculated to correspond to 1 mL of gavage solution per kilogram of body weight. The OFA-Sprague-Dawley rats in two control groups are fed by gavage in the same conditions with gavage solutions containing bromadiolone (alone) at a concentration of 100 ppm or cholecalciferol (alone) at a concentration of 7500 ppm, respectively. 24 hours after the last gavage, a volume of blood is taken from each rat by intracardiac puncture and placed in a specimen tube containing sodium citrate. The animals are euthanized after puncture and the plasma is prepared by centrifugation. Quick's time (or clotting time) is evaluated on the plasma supplemented with sodium citrate, then decalcified and recalcified in the presence of calcium thromboplastin. Quick's time is evaluated by means of an optical device for clotting analysis (Option 2plus, Bio Mèrieux®). The results are presented [FIG. 2]. The average Quick's time measured on the plasma from the rats fed by gavage with bromadiolone (bar “B”) is 12.4 seconds (±1.8), the average Quick's time measured on the plasma from the rats fed by gavage with cholecalciferol (bar “C”) is 12.4 seconds (±0.9) and the average Quick's time measured on the plasma from the rats fed by gavage with the composition comprising bromadiolone and cholecalciferol (bar “D”) is 14.1 seconds (±2.7). The differences in values of Quick's time measured between the three groups of rats are not significant. The rats in the group of rats that received the combination of bromadiolone and cholecalciferol coagulate in the same way as the rats in the group of rats that received the gavage solution containing bromadiolone on the one hand and the rats in the group of rats that received the gavage solution containing cholecalciferol on the other hand. Quick's time for rats treated with a control solution formed from oil (95%, v/v) and DMSO (5%, v/v) is (bar “A”) 12.8 seconds (±2.3). Neither the gavage solution containing bromadiolone in combination with cholecalciferol, nor the gavage solution containing bromadiolone alone, nor the gavage solution containing cholecalciferol induces an increase of Quick's time relative to the control. […]"}, "[2]": {"system": "Warfarin-sensitive Sprague-Dawley rats", "assay": "Relative toxicity of cholecalciferol, single gavage dose, “SD” rats", "type": "in vivo, rat", "details": "single gavage dose 30 mg/kg; 20 days", "description": "(§1) Warfarin-sensitive Sprague-Dawley rats (20 male rats and 20 female rats), male and female rats that are homozygotic carriers of the L120Q mutation, male and female Sprague-Dawley rats that are homozygotic carriers of the Y139F mutation and male and female brown rats (Rattus norvegicus) that are homozygotic carriers of the Y1 39C mutation are acclimatized for 5 days in the presence of a conventional solid feed and water in unlimited amounts. The rats are fed by gavage with a single dose of a gavage solution containing cholecalciferol (Sigma-Aldrich, France) in a solvent consisting of 95% (v/v) of oil and 5% (v/v) of DMSO. The rats are fed with a conventional solid feed and water in unlimited amounts. The amount of cholecalciferol administered is 30 mg of cholecalciferol per kilogram of body weight of the rat fed by gavage. The percentage of rats surviving gavage for 20 days, counting from the first day of gavage, is noted daily. The results given in Table 4 hereunder describe the mortality observed (“SD”, Sprague-Dawley). The amount of cholecalciferol ingested by the rodents during gavage corresponds to consumption by these rodents of a bait assayed at 300 ppm of cholecalciferol."}, "[3]": {"system": "rats that are homozygotic carriers of the L120Q mutation", "assay": "Relative toxicity of cholecalciferol, single gavage dose, L120Q rats", "type": "in vivo, rat", "details": "single gavage dose 30 mg/kg; 20 days", "description": "as §1"}, "[4]": {"system": "brown rats (Rattus norvegicus) that are homozygotic carriers of the Y139C mutation", "assay": "Relative toxicity of cholecalciferol, single gavage dose, Y139C rats", "type": "in vivo", "details": "single gavage dose 30 mg/kg; 20 days", "description": "as §1"}, "[5]": {"system": "warfarin-sensitive male OFA-Sprague-Dawley rats", "assay": "Synergy of difethialone and cholecalciferol on warfarin-sensitive rats, gavage, survival", "type": "in vivo, rat", "details": "gavage once a day for 3 days; cholecalciferol alone 7.5 mg/kg; after 2 days of observation", "description": "A group of warfarin-sensitive male OFA-Sprague-Dawley rats (Charles River, L′Arbresles, France), aged 10 weeks and with a body weight between 160 and 180 g, are fed by gavage once a day for 3 consecutive days with a gavage solution containing difethialone (LIPHATECH, France) and cholecalciferol (Sigma-Aldrich, France) in a solvent consisting of 95% (v/v) of oil and 5% (v/v) of DMSO. During this period of gavage, the rats are fed with a conventional solid feed and water in unlimited amounts. The amounts of difethialone and cholecalciferol administered are 125 μg per kilogram of body weight of the rat fed by gavage and 7.5 mg per kilogram of body weight of the rat fed by gavage, respectively. The rats in two control groups, each consisting of OFA-Sprague-Dawley rats, are fed by gavage in the same conditions with gavage solutions containing difethialone alone (125 μg/kg) or cholecalciferol alone (7.5 mg/kg), respectively. The percentage of rats surviving gavage is recorded daily, for 20 days counting from the first day of gavage. The results presented [FIG. 3] show the variation of the percentage of rodents surviving (in %) as a function of time (t, in days) following the first day of gavage. The rats fed by gavage with the difethialone solution (♦) have 100% survival after 20 days of observation. […]"}, "[6]": {"system": "warfarin-sensitive male OFA-Sprague-Dawley rats", "assay": "Dose/rodenticidal response effect of cholecalciferol", "type": "in vivo, rat", "details": "gavage, 21 days", "description": "A gavage solution containing cholecalciferol (Sigma-Aldrich, France) in a solvent consisting of 95% (v/v) of oil and 5% (v/v) of DMSO is administered once a day for 3 consecutive days to warfarin-sensitive male OFA-Sprague-Dawley rats (Charles River, L′Arbresles, France), aged 10 weeks and with a body weight between 160 and 180 g. During this period of gavage, the rats are fed with a conventional solid feed and water in unlimited amounts. The doses of cholecalciferol administered to the OFA-Sprague-Dawley rats, given in Table 7 hereunder, are expressed in milligrams of cholecalciferol administered per kilogram of body weight of the gavage-fed rodent.\nThe percentage of rats surviving gavage is noted daily for 21 days counting from the first day of gavage."}}}
{"compound": "C=C1CC[C@H](O)C/C1=C/C=C1\\CCC[C@]2(C)[C@@H]([C@H](C)CCCC(C)C)CC[C@@H]12", "note": "[cholecalciferol]", "values": [{"measurement": "anticoagulant effect (increase of Quick's time relative to the control)", "setting": "[1]; 3 daily gavages, bromadiolone 100 ppm and/or cholecalciferol 7500 ppm solution, 1 mL/kg", "result": "not anticoagulants"}, {"measurement": "average Quick's time (clotting time)", "setting": "[1]; plasma 24 hours after last of 3 daily gavages, 1 mL/kg of solution with bromadiolone 100 ppm and/or cholecalciferol 7500 ppm", "result": 12.4, "unit": "s"}, {"measurement": "Female mortality, %", "setting": "[2]", "result": 30, "unit": "%"}, {"measurement": "Male mortality, %", "setting": "[2]", "result": 10, "unit": "%"}, {"measurement": "Female mortality, %", "setting": "[3]", "result": 5, "unit": "%"}, {"measurement": "Male mortality, %", "setting": "[3]", "result": 15, "unit": "%"}, {"measurement": "Female mortality, %", "setting": "[4]", "result": 0, "unit": "%"}, {"measurement": "Male mortality, %", "setting": "[4]", "result": 30, "unit": "%"}, {"measurement": "percentage of rats surviving", "setting": "[5]", "result": 60, "unit": "%"}, {"measurement": "Mortality, %", "setting": "[6]; dose 5 mg/kg once a day for 3 days", "result": 20, "unit": "%"}, {"measurement": "Mortality, %", "setting": "[6]; dose 7.5 mg/kg once a day for 3 days", "result": 30, "unit": "%"}]}
